In publication PMC9481151, “Discovery of new symmetrical and asymmetrical nitrile-containing 1,4-dihydropyridine derivatives as dual kinases and P-glycoprotein inhibitors: synthesis, in vitro assays, and in silico studies” (Journal of Enzyme Inhibition and Medicinal Chemistry, 2022):

Columns and labels:
T-47D = assay: NCI single dose (10 µM) SRB screen; type: cell-based, human; settings: breast cancer, 48 h
MCF7 = assay: NCI single dose (10 µM) SRB screen; type: cell-based, human; settings: breast cancer, 48 h
SK-MEL-28 = assay: NCI single dose (10 µM) SRB screen; type: cell-based, human; settings: melanoma, 48 h
MDA-MB-468 = assay: NCI single dose (10 µM) SRB screen; type: cell-based, human; settings: breast cancer, 48 h
KM12 = assay: NCI single dose (10 µM) SRB screen; type: cell-based, human; settings: colon cancer, 48 h
RPMI-8226 = assay: NCI single dose (10 µM) SRB screen; type: cell-based, human; settings: leukaemia, 48 h
COLO 205 = assay: NCI single dose (10 µM) SRB screen; type: cell-based, human; settings: colon cancer, 48 h
NCI-H322M = assay: NCI single dose (10 µM) SRB screen; type: cell-based; settings: non-small cell lung cancer, 48 h
SNB-75 = assay: NCI single dose (10 µM) SRB screen; type: cell-based, human; settings: CNS cancer, 48 h
PC-3 = assay: NCI single dose (10 µM) SRB screen; type: cell-based, human; settings: prostate cancer, 48 h
RXF 393 = assay: NCI single dose (10 µM) SRB screen; type: cell-based, human; settings: renal cancer, 48 h
HCC-2998 = assay: NCI single dose (10 µM) SRB screen; type: cell-based, human; settings: colon cancer, 48 h
U251 = assay: NCI single dose (10 µM) SRB screen; type: cell-based, human; settings: CNS cancer, 48 h
786-0 = assay: NCI single dose (10 µM) SRB screen; type: cell-based, human; settings: renal cancer, 48 h
SNB-19 = assay: NCI single dose (10 µM) SRB screen; type: cell-based, human; settings: CNS cancer, 48 h
NCI-H23 = assay: NCI single dose (10 µM) SRB screen; type: cell-based, human; settings: non-small cell lung cancer, 48 h
M14 = assay: NCI single dose (10 µM) SRB screen; type: cell-based, human; settings: melanoma, 48 h
BT-549 = assay: NCI single dose (10 µM) SRB screen; type: cell-based, human; settings: breast cancer, 48 h
TK-10 = assay: NCI single dose (10 µM) SRB screen; type: cell-based, human; settings: renal cancer, 48 h
HS578T = assay: NCI single dose (10 µM) SRB screen; type: cell-based, human; settings: breast cancer, 48 h
IGROV1 = assay: NCI single dose (10 µM) SRB screen; type: cell-based, human; settings: ovarian cancer, 48 h
HCT-116 = assay: NCI single dose (10 µM) SRB screen; type: cell-based, human; settings: colon cancer, 48 h
SK-OV-3 = assay: NCI single dose (10 µM) SRB screen; type: cell-based, human; settings: ovarian cancer, 48 h
ACHN = assay: NCI single dose (10 µM) SRB screen; type: cell-based, human; settings: renal cancer, 48 h
UO-31 = assay: NCI single dose (10 µM) SRB screen; type: cell-based, human; settings: renal cancer, 48 h
CCRF-CEM = assay: NCI single dose (10 µM) SRB screen; type: cell-based, human; settings: leukaemia, 48 h
NCI-H522 = assay: NCI single dose (10 µM) SRB screen; type: cell-based, human; settings: non-small cell lung cancer, 48 h
NCI 60 cancer cell lines = assay: NCI single dose (10 µM) SRB screen, mean over panel; type: cell-based, human; settings: mean over 60 cell lines, 48 h
OVCAR-4 = assay: NCI single dose (10 µM) SRB screen; type: cell-based, human; settings: ovarian cancer, 48 h
HCT-15 = assay: NCI single dose (10 µM) SRB screen; type: cell-based, human; settings: colon cancer, 48 h
NCI-H460 = assay: NCI single dose (10 µM) SRB screen; type: cell-based, human; settings: non-small cell lung cancer, 48 h
UACC-62 = assay: NCI single dose (10 µM) SRB screen; type: cell-based, human; settings: melanoma, 48 h
Staphylococcus aureus = assay: Agar well diffusion method
HL-60(TB) = assay: NCI single dose (10 µM) SRB screen; type: cell-based, human; settings: leukaemia, 48 h
OVCAR-3 = assay: NCI single dose (10 µM) SRB screen; type: cell-based, human; settings: ovarian cancer, 48 h
CAKI-1 = assay: NCI single dose (10 µM) SRB screen; type: cell-based, human; settings: renal cancer, 48 h
Pseudomonas aeruginosa = assay: Agar well diffusion method
OVCAR-5 = assay: NCI single dose (10 µM) SRB screen; type: cell-based, human; settings: ovarian cancer, 48 h
SN12C = assay: NCI single dose (10 µM) SRB screen; type: cell-based, human; settings: renal cancer, 48 h
Bacillus subtilis = assay: Agar well diffusion method
Escherichia coli = assay: Agar well diffusion method; settings: relative to ciprofloxacin
SK-MEL-2 = assay: NCI single dose (10 µM) SRB screen; type: cell-based, human; settings: melanoma, 48 h
UACC-257 = assay: NCI single dose (10 µM) SRB screen; type: cell-based, human; settings: melanoma, 48 h
Aspergillus flavus = assay: Agar well diffusion method
K-562 = assay: NCI single dose (10 µM) SRB screen; type: cell-based, human; settings: leukaemia, 48 h
MALME-3M = assay: NCI single dose (10 µM) SRB screen; type: cell-based, human; settings: melanoma, 48 h
Candida albicans = assay: Agar well diffusion method
NCI-H226 = assay: NCI single dose (10 µM) SRB screen; type: cell-based, human; settings: non-small cell lung cancer, 48 h
SR = assay: NCI single dose (10 µM) SRB screen; type: cell-based, human; settings: leukaemia, 48 h
SF-295 = assay: NCI single dose (10 µM) SRB screen; type: cell-based, human; settings: CNS cancer, 48 h

**Q.** With `CC1=C(C(=O)OC(C)C)C(c2cccc(C#N)c2)C(C(=O)OC(C)C)=C(C)N1` [Compound 1c, Diisopropyl 4-(3-cyanophenyl)-2,6-dimethyl-1,4-dihydropyridine-3,5-dicarboxylate] as the compound, how does the “GI% T-47D” value (T-47D) read?
**A.** 30%

**Q.** What about the “GI% MCF7” value (MCF7) of the same compound?
**A.** 11%

**Q.** What about the “GI% SK-MEL-28” value (SK-MEL-28) of the same compound?
**A.** – (Only GI% ≥ 10 are shown)

**Q.** What about the “GI% MDA-MB-468” value (MDA-MB-468) of the same compound?
**A.** 22%

**Q.** And the “GI% KM12” value (KM12)?
**A.** – (Only GI% ≥ 10 are shown)

**Q.** And the “GI% RPMI-8226” value (RPMI-8226)?
**A.** 17%

**Q.** And the “GI% COLO 205” value (COLO 205)?
**A.** – (Only GI% ≥ 10 are shown)

**Q.** And the “GI% NCI-H322M” value (NCI-H322M)?
**A.** – (Only GI% ≥ 10 are shown)

**Q.** What about the “GI% SNB-75” value (SNB-75) of the same compound?
**A.** 20%

**Q.** What about the “GI% PC-3” value (PC-3) of the same compound?
**A.** 29%

**Q.** What about the “GI% RXF 393” value (RXF 393) of the same compound?
**A.** – (Only GI% ≥ 10 are shown)

**Q.** And the “GI% HCC-2998” value (HCC-2998)?
**A.** – (Only GI% ≥ 10 are shown)

**Q.** And the “GI% U251” value (U251)?
**A.** – (Only GI% ≥ 10 are shown)

**Q.** What about the “GI% 786-0” value (786-0) of the same compound?
**A.** 16%

**Q.** What about the “GI% SNB-19” value (SNB-19) of the same compound?
**A.** – (Only GI% ≥ 10 are shown)

**Q.** What about the “GI% NCI-H23” value (NCI-H23) of the same compound?
**A.** – (Only GI% ≥ 10 are shown)

**Q.** And the “GI% M14” value (M14)?
**A.** – (Only GI% ≥ 10 are shown)

**Q.** And the “GI% BT-549” value (BT-549)?
**A.** – (Only GI% ≥ 10 are shown)

**Q.** And the “GI% TK-10” value (TK-10)?
**A.** – (Only GI% ≥ 10 are shown)

**Q.** What about the “GI% HS578T” value (HS578T) of the same compound?
**A.** – (Only GI% ≥ 10 are shown)

**Q.** And the “GI% IGROV1” value (IGROV1)?
**A.** – (Only GI% ≥ 10 are shown)

**Q.** And the “GI% HCT-116” value (HCT-116)?
**A.** 13%

**Q.** And the “GI% SK-OV-3” value (SK-OV-3)?
**A.** – (Only GI% ≥ 10 are shown)

**Q.** What about the “GI% ACHN” value (ACHN) of the same compound?
**A.** – (Only GI% ≥ 10 are shown)

**Q.** What about the “GI% UO-31” value (UO-31) of the same compound?
**A.** – (Only GI% ≥ 10 are shown)

**Q.** What about the “GI% CCRF-CEM” value (CCRF-CEM) of the same compound?
**A.** – (Only GI% ≥ 10 are shown)

**Q.** What about the “GI% NCI-H522” value (NCI-H522) of the same compound?
**A.** 11%

**Q.** And the “Mean GI%” value (NCI 60 cancer cell lines)?
**A.** 6%

**Q.** And the “GI% OVCAR-4” value (OVCAR-4)?
**A.** – (Only GI% ≥ 10 are shown)

**Q.** What about the “GI% HCT-15” value (HCT-15) of the same compound?
**A.** 10%

**Q.** What about the “GI% NCI-H460” value (NCI-H460) of the same compound?
**A.** – (Only GI% ≥ 10 are shown)

**Q.** And the “GI% UACC-62” value (UACC-62)?
**A.** 14%

**Q.** What about the zone of inhibition at 1000 µg/mL (Staphylococcus aureus; Staphylococcus aureus, 24 h, read-out: Diameter of inhibition zone, S. aureus) of the same compound?
**A.** 11 mm

**Q.** And the “% activity index, S. aureus” value (Staphylococcus aureus; relative to ciprofloxacin)?
**A.** 45.8%

**Q.** And the “GI% HL-60(TB)” value (HL-60(TB))?
**A.** 29%

**Q.** What about the “GI% OVCAR-3” value (OVCAR-3) of the same compound?
**A.** – (Only GI% ≥ 10 are shown)

**Q.** And the “GI% CAKI-1” value (CAKI-1)?
**A.** 19%

**Q.** What about the zone of inhibition at 1000 µg/mL (Pseudomonas aeruginosa; Pseudomonas aeruginosa, 24 h, read-out: Diameter of inhibition zone, P. aeruginosa) of the same compound?
**A.** 8 mm

**Q.** What about the “% activity index, P. aeruginosa” value (Pseudomonas aeruginosa; relative to ciprofloxacin) of the same compound?
**A.** 34.8%

**Q.** And the “GI% OVCAR-5” value (OVCAR-5)?
**A.** – (Only GI% ≥ 10 are shown)

**Q.** And the “GI% SN12C” value (SN12C)?
**A.** – (Only GI% ≥ 10 are shown)

**Q.** What about the zone of inhibition at 1000 µg/mL (Bacillus subtilis; Bacillus subtilis, 24 h, read-out: Diameter of inhibition zone, B. subtilis) of the same compound?
**A.** 6 mm

**Q.** And the “% activity index, B. subtilis” value (Bacillus subtilis; relative to ciprofloxacin)?
**A.** 26.1%

**Q.** What about the “% activity index, E. coli” value (Escherichia coli) of the same compound?
**A.** – (Values below 25 are of limited value and not shown as they refer either to inactive or non-diffusing compounds)

**Q.** What about the “GI% SK-MEL-2” value (SK-MEL-2) of the same compound?
**A.** – (Only GI% ≥ 10 are shown)

**Q.** What about the “GI% UACC-257” value (UACC-257) of the same compound?
**A.** – (Only GI% ≥ 10 are shown)

**Q.** What about the zone of inhibition at 1000 µg/mL (Aspergillus flavus; Aspergillus flavus, 24 h, read-out: Diameter of inhibition zone, A. flavus) of the same compound?
**A.** 13 mm

**Q.** What about the “% activity index, A. flavus” value (Aspergillus flavus; relative to clotrimazole) of the same compound?
**A.** 52%

**Q.** And the “GI% K-562” value (K-562)?
**A.** 25%

**Q.** And the “GI% MALME-3M” value (MALME-3M)?
**A.** – (Only GI% ≥ 10 are shown)

**Q.** And the zone of inhibition at 1000 µg/mL (Candida albicans; Candida albicans, 24 h, read-out: Diameter of inhibition zone, C. albicans)?
**A.** 10 mm

**Q.** And the “% activity index, C. albicans” value (Candida albicans; relative to clotrimazole)?
**A.** 37%

**Q.** And the “GI% NCI-H226” value (NCI-H226)?
**A.** – (Only GI% ≥ 10 are shown)

**Q.** And the “GI% SR” value (SR)?
**A.** 18%

**Q.** And the “GI% SF-295” value (SF-295)?
**A.** – (Only GI% ≥ 10 are shown)
